Results taken from PubChem BioAssay (NCI).
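Compound exposure: 48 hours, 5 concentrations, 96-well plates. Here, GI50 denotes the concentration required for 50% inhibition of growth. TGI: concentration producing complete growth inhibition.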

Assays:
Assay in all cases: inhibition of tumour cell growth, NCI panel, 48 h
[1] = tested on: NCI/ADR-RES ovarian
[2] = tested on: HT29 colon
[3] = tested on: OVCAR-4 ovarian
[4] = tested on: CAKI-1 renal
[5] = tested on: LOX IMVI melanoma
[6] = tested on: OVCAR-5 ovarian
[7] = tested on: HCT-15 colon
[8] = tested on: MALME-3M melanoma
[9] = tested on: SF-295 CNS
[10] = tested on: RPMI-8226 leukemia

SMILES	TGI [1] [µM]	TGI [2] [µM]	TGI [3] [µM]	TGI [4] [µM]	TGI [5] [µM]	TGI [6] [µM]	TGI [7] [µM]	TGI [8] [µM]	TGI [9] [µM]	GI50 [1] [µM]	GI50 [2] [µM]	GI50 [4] [µM]	GI50 [5] [µM]	GI50 [6] [µM]	GI50 [7] [µM]	GI50 [10] [µM]	TGI [10] [µM]	GI50 [8] [µM]	GI50 [9] [µM]	GI50 [3] [µM]
CCCCCCCCCCCCCCCCCC(=O)OCC(COC(=O)CCCN)OC(=O)CCCN (configuration not stated)	37	33.5	40.9	35.5	42.5	29.4	52.3	38.2	35.1											
COc1cccc(NC(=O)c2sc3nc4c(cc3c2N)C(=O)CCC4)c1	> 45.9	> 100		> 100	> 100	> 100	> 100	> 100	> 100	0.102	0.0866	0.882	1.71	0.635	0.0686	0.332	> 100	0.108	0.0818	
COc1ccc(OC)c2c1[nH]c(=O)c1c3ncccc3cn21	> 100	4.34	17.2	> 100	4.29		> 100	> 100	> 100	2.56	1.49	3.23	1.8		3.27	6.78	> 100	5.51	2.92	3.56
COC(=O)c1cc(O)c2c(c1C(=O)OC)C[C@H]1[C@@H]3CC=C4C[C@@H](O)CC[C@]4(C)[C@H]3CC[C@]21C	24.4	7	15.8	9.07		23.9	35.1	8.15	4.4	3.61	2.74	2.89		4.82	3.03	1.57	4.96	2.71	1.72	3.59
Cn1c2ccc(Br)cc2c2c3c(c4c5ccccc5[nH]c4c21)C(=O)N(O)C3=O	> 100	0.658	0.705	0.885	0.193	3.73		0.386	0.633	0.357	0.23	0.22	0.0537	1.33		0.151	0.672	0.186	0.223	0.244
CC(=O)On1c(-c2ccccc2-c2nc3ccccc3n2OC(C)=O)nc2ccccc21	> 100			> 100	> 100	> 100	> 100	> 100	> 100								71			
O=C(OCc1ncc(-c2ccc(C(F)(F)F)cc2)c(NC2CCCCCC2)n1)c1c(F)c(F)c(F)c(F)c1F	55.5	40	30.6	37.3		36.5	4.78	32.6	33.8	21.2	13.8	17.5		20	1.94	3.07	9.95	16.6	17.4	15.5
